# In patent publication US9926340B2, “NAD analogs and methods of using said NAD analogs in determining ribosylation of proteins with PARP mutants” (The Board of Regents of the University of Texas System, priority 2015, dated 2018):
# Entries after “also recorded” stand apart in the source; their conditions may differ.
# Assays:
# Assay in all cases: Automodification reaction, ADP-ribose Western blot / in-gel fluorescence after click to azido-rhodamine
# Type in all cases: biochemical
# Settings in all cases: FIG. 5I
# asPARP-2 (L443A) = biological target: T1, asPARP-2 (L443A) (Homo sapiens, UniProt Q9UGN5, L443A)
# T1 construct: made in house; host or cells: Sf9 insect cells (baculovirus)
# Method: (§1) In vitro automodification reactions. 200 ng PARP Protein was incubated in Automodification Buffer (30 mM HEPES, pH 8.0, 5 mM MgCl2, 5 mM CaCl2, 0.01% NP-40, 1 mM DTT, 100 ng/mL sonicated salmon sperm DNA (Stratagene), 100 ng/mL BSA (SIGMA)) with NAD^+ or NAD^+ analogs as indicated at 25° C. for 5 (PARP-1 and PARP2) or 30 minutes (PARP3) for Sf9-purified proteins and for 45 minutes for bacterially purified enzymes.
# (§2) Reactions were stopped by addition of ⅓ reaction volume with 4×SDS-PAGE Loading Buffer (200 mM Tris, pH 6.8, 8% SDS, 40% Glycerol, 4% β-mercaptoethanol, 50 mM EDTA, 0.08% Bromophenol Blue) followed by boiling at 100° C. for 5 minutes. Reaction products in 1×SDS-PAGE buffer were then resolved on a 10% SDS-PAGE gel, transferred to a nitrocellulose membrane and blotted with a polyclonal antibody against PARP-1 or with an antibody-like detection reagent against ADP-ribose (MABE1016, Millipore). Relative quantitation of PARP-1 automodifications was performed by the ratio of PARylation-induced […] in SDS-PAGE mobility relative to un-shifted full length PARP-1 measured by densitometry of anti-PARP-1 western blots.
# (§3) Reactions were stopped by methanol:chloroform precipitation (Wessel and Flugge, 1984). The protein pellets were clicked to azido-Rhodamine (Click Chemistry Tools) in Denaturing CC Buffer (100 mM HEPES, pH 8, 4 M Urea, 0.5 M NaCl, 2% CHAPS, 10 μM azido-Rhodamine, 1 mM THPTA (Click Chemistry Tools), 5 mM CuSO4, 5 mM Sodium Ascorbate) with Azido-Rhodamine, THPTA:CuSO4 complex, and Sodium Ascorbate each added sequentially in written order. […]
# (§4) The automodification reactions were stopped by the addition of one third of a reaction volume of 4×SDS-PAGE Loading Buffer (200 mM Tris.HCl, pH 6.8, 8% SDS, 40% glycerol, 4% 3-mercaptoethanol, 50 mM EDTA, 0.08% bromophenol blue) followed by heating to 100° C. for 5 min. […] Relative quantification of PARP-1 automodification was performed using densitometry and was expressed as the ratio of the PARylation-induced decrease in PARP-1 mobility relative to non-shifted PARP-1. […]
# asPARP-1 (PARP-1 L877A) = biological target: T2, asPARP-1 (PARP-1 L877A) (Mus musculus, UniProt P11103, L876A)
# T2 construct: relative to un-shifted full length PARP-1 measured by densitometry of anti-PARP-1 western blots; made in house; host or cells: Sf9 insect cells (baculovirus)
# Method: as §1, §2, §3, §4
# asPARP-3 (L394A) = biological target: T3, asPARP-3 (L394A) (Mus musculus, UniProt Q3ULW8, L399A)
# T3 construct: made in house; host or cells: Sf9 insect cells (baculovirus)
# T3 sequence (Q3ULW8 1-528 isoform Q3ULW8-2 L394A): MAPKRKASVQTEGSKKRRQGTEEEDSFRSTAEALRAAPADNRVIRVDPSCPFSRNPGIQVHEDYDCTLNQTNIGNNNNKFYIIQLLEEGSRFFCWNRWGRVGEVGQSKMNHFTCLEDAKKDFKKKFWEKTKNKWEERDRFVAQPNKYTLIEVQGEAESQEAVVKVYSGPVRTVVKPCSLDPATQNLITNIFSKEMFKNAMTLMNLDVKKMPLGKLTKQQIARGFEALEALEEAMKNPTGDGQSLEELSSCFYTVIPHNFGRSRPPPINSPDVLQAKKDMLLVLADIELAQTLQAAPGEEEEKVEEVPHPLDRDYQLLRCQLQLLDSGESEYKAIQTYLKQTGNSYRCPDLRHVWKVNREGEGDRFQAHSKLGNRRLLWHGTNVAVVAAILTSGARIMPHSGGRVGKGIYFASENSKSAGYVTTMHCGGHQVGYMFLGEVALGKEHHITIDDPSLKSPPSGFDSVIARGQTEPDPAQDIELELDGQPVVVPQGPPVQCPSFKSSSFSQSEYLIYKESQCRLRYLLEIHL
# Method: as §1, §2, §3, §4
# T1 sequence (Q9UGN5 whole entry L443A): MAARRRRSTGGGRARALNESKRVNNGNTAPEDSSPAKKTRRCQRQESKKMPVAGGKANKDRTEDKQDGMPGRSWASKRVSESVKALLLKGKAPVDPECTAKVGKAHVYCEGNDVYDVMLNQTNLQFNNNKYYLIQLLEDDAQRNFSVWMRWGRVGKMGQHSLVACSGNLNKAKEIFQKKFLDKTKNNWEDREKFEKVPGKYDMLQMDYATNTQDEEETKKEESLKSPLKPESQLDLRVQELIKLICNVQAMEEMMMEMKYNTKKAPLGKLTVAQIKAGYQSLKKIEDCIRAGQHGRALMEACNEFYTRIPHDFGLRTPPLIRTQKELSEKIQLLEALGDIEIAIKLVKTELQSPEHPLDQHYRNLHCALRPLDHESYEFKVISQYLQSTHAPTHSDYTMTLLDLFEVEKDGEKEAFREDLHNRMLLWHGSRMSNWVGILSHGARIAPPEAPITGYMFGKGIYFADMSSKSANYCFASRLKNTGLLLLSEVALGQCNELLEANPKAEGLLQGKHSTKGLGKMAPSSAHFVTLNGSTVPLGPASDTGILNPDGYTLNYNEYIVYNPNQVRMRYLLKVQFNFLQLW
# T2 sequence (P11103 whole entry L876A): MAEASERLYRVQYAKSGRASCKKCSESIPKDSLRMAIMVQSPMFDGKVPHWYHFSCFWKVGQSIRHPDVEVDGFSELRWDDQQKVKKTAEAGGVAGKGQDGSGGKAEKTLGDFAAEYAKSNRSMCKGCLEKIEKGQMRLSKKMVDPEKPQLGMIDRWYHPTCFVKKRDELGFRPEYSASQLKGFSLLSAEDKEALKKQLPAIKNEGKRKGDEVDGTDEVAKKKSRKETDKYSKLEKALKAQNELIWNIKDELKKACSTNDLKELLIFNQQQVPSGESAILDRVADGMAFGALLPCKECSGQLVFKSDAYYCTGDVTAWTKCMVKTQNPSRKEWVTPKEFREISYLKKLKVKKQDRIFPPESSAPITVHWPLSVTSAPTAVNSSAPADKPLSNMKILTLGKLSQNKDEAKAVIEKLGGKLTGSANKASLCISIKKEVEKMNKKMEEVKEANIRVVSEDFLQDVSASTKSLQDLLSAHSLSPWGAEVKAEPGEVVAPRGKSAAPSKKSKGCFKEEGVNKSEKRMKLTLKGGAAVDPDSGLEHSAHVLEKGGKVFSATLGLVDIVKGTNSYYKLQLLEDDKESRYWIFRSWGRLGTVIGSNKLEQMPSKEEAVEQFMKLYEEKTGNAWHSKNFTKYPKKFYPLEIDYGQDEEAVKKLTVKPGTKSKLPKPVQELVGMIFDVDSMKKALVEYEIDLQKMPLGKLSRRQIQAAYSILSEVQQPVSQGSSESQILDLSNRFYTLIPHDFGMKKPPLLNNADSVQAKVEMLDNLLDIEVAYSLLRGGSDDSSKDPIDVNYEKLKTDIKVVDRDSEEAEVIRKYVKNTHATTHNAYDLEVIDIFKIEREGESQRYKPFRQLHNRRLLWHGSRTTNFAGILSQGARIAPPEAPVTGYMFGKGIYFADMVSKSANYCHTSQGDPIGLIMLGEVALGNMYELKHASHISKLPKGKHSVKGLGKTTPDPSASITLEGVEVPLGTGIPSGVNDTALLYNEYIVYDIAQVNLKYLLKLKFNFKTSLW
compound,measurement,setting,value
C#CCCSc1nc2c(N)ncnc2n1[C@@H]1O[C@H](COP(=O)(O)OP(=O)(O)OC[C@H]2O[C@@H]([n+]3cccc(C(N)=O)c3)C(O)C2O)[C@H](O)C1O (stereo partly drawn) [8-Bu(3-yne)T-NAD^+],catalytic activity of asPARP-2 with the NAD analog,asPARP-2 (L443A),catalytically active; also recorded: supports activity
same,catalytic activity of asPARP-1 with the NAD analog,asPARP-1 (PARP-1 L877A),catalytically active
same,catalytic activity of asPARP-3 with the NAD analog,asPARP-3 (L394A),catalytically active; also recorded: supports activity
